Broadly, the IC50 is the midpoint of a concentration-inhibition curve. A higher IC50 goes with weaker potency in that assay.

Assay [1] has as its target T1, sRAGE (ligand Carboxymethyl Lysine (CML)) (Homo sapiens, UniProt Q15109).
T1 construct: extracellular domain can be isolated by proteolysis of RAGE to generate soluble RAGE (sRAGE) comprised of the V and C domains
The assay is described as follows: ELISA assay: inhibition of sRAGE binding to plate-bound CML. The following applies: sRAGE binding to immobilised CML; concentration at which 50% signal has been inhibited. Here is the method:
(§1) S100b, β-amyloid and CML (500 ng/100 μL/well) in 100 mM sodium bicarbonate/sodium carbonate buffer (pH 9.8) is loaded onto the wells of a NUNC Maxisorp flat bottom 96-well microtitre plate. The plate is incubated at 4° C. overnight. The wells are aspirated and treated with 50 mM imidazole buffer saline (pH 7.2) (with 1 mM CaCl2/MgCl2) containing 1% bovine serum albumin (BSA) (300 μL/well) for two h at 37° C.
(§2) Test compounds are dissolved in nanopure water (concentration: 10-100 μM). DMSO may be used as co-solvent. 25 μL of test compound solution in 2% DMSO is added, along with 75 μL sRAGE (4.0×10^−4 mg/mL FAC) to each well and samples are incubated for 1 h at 37° C. The wells are washed 3 times with 155 mM NaCl pH 7.2 buffer saline and are soaked 10 seconds between each wash.
(§3) Non-radioactive binding is performed by adding:
(§4) 10 μL Biotinylated goat F(ab′)2 Anti-mouse IgG. (8.0×10^−4 mg/mL, FAC)
(§5) 10 μL Alkaline phosphatase Streptavidin (3×10^−3 mg/mL FAC)
(§6) 10 μL Polyclonal antibody for sRAGE (FAC 6.0×10^−3 mg/mL)
(§7) to 5 mL 50 mM imidazole buffer saline (pH 7.2) containing 0.2% bovine serum albumin and 1 mM CaCl2. The mixture is incubated for 30 minutes at 37° C. 100 μL complex is added to each well and incubation is allowed to proceed at rt for 1 h. Wells are washed 3 times with wash buffer and soaked 10 s between each wash. 100 μL 1 mg/mL (pNPP) in 1 M diethanolamine (pH adjusted to 9.8 with HCl) is added. Color is allowed to develop in the dark for 1 to 2 h at rt. The reaction is quenched with 10 μL of stop solution (0.5 N NaOH in 50% ethanol) and the absorbance is measured spectrophotometrically with a microplate reader at 405 nm.
(In an ELISA, binding on a coated surface is turned into a signal by an enzyme label.)

A further assay has as its target T2, sRAGE (ligand S-100b) (Homo sapiens, UniProt Q15109).
T2 construct: extracellular domain can be isolated by proteolysis of RAGE to generate soluble RAGE (sRAGE) comprised of the V and C domains
The assay is described as follows: ELISA assay: inhibition of sRAGE binding to plate-bound S100b. The following applies: sRAGE binding to immobilised S100b; concentration at which 50% signal has been inhibited. Here is the method: as §1, §2, §3, §4, §5, §6, §7

Another assay concerns the target T3, sRAGE (ligand Amyloid-β) (Homo sapiens, UniProt Q15109).
T3 construct: extracellular domain can be isolated by proteolysis of RAGE to generate soluble RAGE (sRAGE) comprised of the V and C domains
The assay is described as follows: ELISA assay: inhibition of sRAGE binding to plate-bound β-amyloid. The conditions noted are these: sRAGE binding to immobilised β-amyloid; concentration at which 50% signal has been inhibited. On the procedure: as §1, §2, §3, §4, §5, §6, §7

Structures can show the parent of a compound that is named as a salt.

T1 sequence (Q15109 23-342 limits assumed): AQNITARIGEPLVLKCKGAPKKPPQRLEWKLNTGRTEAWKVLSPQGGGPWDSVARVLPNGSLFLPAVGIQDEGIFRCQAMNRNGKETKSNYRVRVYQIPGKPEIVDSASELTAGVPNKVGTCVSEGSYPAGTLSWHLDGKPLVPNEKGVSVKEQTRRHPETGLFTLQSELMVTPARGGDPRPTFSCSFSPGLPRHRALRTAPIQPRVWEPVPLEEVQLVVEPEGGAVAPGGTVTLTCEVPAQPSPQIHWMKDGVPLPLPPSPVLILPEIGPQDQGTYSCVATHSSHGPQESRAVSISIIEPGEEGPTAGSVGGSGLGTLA
T3 sequence (Q15109 23-342 limits assumed): as above
T2 sequence (Q15109 23-342 limits assumed): as above

For the compound `CCCCn1c([C@@H](Cc2ccc(OCc3ccccc3)cc2)NC(=O)OC(C)(C)C)nc2ccc(OCCCN(CC)CC)cc21` [Example 1, 2-[(1R)-2-(4-Benzyloxyphenyl)-1-tert-butoxycarbonylamino-1-ethyl]-3-butyl-5-(3-diethylamino-1-propoxy)benzimidazole], the values for the IC50 (in assay [1]; on sRAGE (ligand S-100b); on sRAGE (ligand Amyloid-β)) were 0.5 to 1 µM, 1 to 5 µM and 1 to 5 µM, respectively.

In the case of `CCCCn1c([C@H](N)Cc2ccc(OCc3ccccc3)cc2)nc2ccc(OCCCN(CC)CC)cc21` [Example 2, 2-[(1R)-2-(4-Benzyloxyphenyl)-1-amino-1-ethyl]-3-butyl-5-(3-diethylamino-1-propoxy)benzimidazoleTrihydrochloride], the IC50 (in assay [1]; on sRAGE (ligand S-100b); on sRAGE (ligand Amyloid-β)) was 1 to 5 µM in each case.

On to `CCCCn1c([C@@H](Cc2ccc(OCc3ccccc3)cc2)NC(=O)OC(C)(C)C)nc2cc(OCCCN(CC)CC)ccc21` [Example 3, 2-[(1R)-2-(4-Benzyloxyphenyl)-1-tert-butoxycarbonylamino-1-ethyl]-3-butyl-6-(3-diethylamino-1-propoxy)benzimidazole], for which the IC50 (in assay [1]; on sRAGE (ligand S-100b); at sRAGE (ligand Amyloid-β)) was 1 to 5 µM each time.

`CCCCn1c([C@H](N)Cc2ccc(OCc3ccccc3)cc2)nc2cc(OCCCN(CC)CC)ccc21` [Example 4, 2-[(1R)-2-(4-Benzyloxyphenyl)-1-amino-1-ethyl]-3-butyl-6-(3-diethylamino-1-propoxy)benzimidazole]: the IC50 (in assay [1]; at sRAGE (ligand S-100b); on sRAGE (ligand Amyloid-β)) was 1 to 5 µM each time.

As to `CCN(CC)CCCOc1ccc2[nH]c([C@@H](Cc3ccc(OCc4ccccc4)cc3)NC(=O)OC(C)(C)C)nc2c1` [Example 5, 2-[(1R)-2-(4-Benzyloxyphenyl)-1-tert-butoxycarbonylamino-1-ethyl]-6-(3-diethylamino-1-propoxy)benzimidazole], the IC50 was in the range of 5 to 10 µM in assay [1] and 10 to 20 µM on sRAGE (ligand S-100b).

`CCN(CC)CCCOc1ccc2[nH]c([C@H](N)Cc3ccc(OCc4ccccc4)cc3)nc2c1` [Example 6, 2-[(1R)-2-(4-Benzyloxyphenyl)-1-amino-1-ethyl]-6-(3-diethylamino-1-propoxy)benzimidazole]: the IC50 in assay [1] lay in the range of 1 to 5 µM; on sRAGE (ligand S-100b), 5 to 10 µM; at sRAGE (ligand Amyloid-β), 5 to 10 µM.

Consider `CCCCn1c(C(Cc2cccc(OCc3ccccc3)c2)NC(=O)OC(C)(C)C)nc2ccc(OCCCN(CC)CC)cc21` (centres unmarked) [Example 7, 2-[2-(3-Benzyloxyphenyl)-1-(tert-butoxycarbonylamino)-1-ethyl]-3-butyl-5-(3-diethylamino-1-propoxy)benzimidazole], for which the IC50 (in assay [1]; on sRAGE (ligand S-100b); at sRAGE (ligand Amyloid-β)) was 1 to 5 µM in each case.

Consider `CCCCn1c([C@@H](Cc2ccc(OCC)cc2)NC(=O)OC(C)(C)C)nc2ccc(OCCCN(CC)CC)cc21` [Example 8, 2-[(1R)-2-(4-Ethoxyphenyl)-1-(tert-butoxycarbonylamino)-1-ethyl]-3-butyl-5-(3-diethylamino-1-propoxy)benzimidazole], for which the IC50 was 1 to 5 µM in assay [1], 5 to 10 µM at sRAGE (ligand S-100b) and 5 to 10 µM on sRAGE (ligand Amyloid-β).

As to `CCCCn1c([C@@H](Cc2ccc(OCCc3ccc(Cl)cc3)cc2)NC(=O)OC(C)(C)C)nc2ccc(OCCCN(CC)CC)cc21` [Example 9], the IC50 (in assay [1]; at sRAGE (ligand S-100b); at sRAGE (ligand Amyloid-β)) was 0.5 to 1 µM each time.

With `CCN(CC)CCCOc1ccc2nc([C@@H](Cc3ccc(OCc4ccccc4)cc3)NC(=O)OC(C)(C)C)n(CCCN(CC)CC)c2c1` [Example 10, 2-[(1R)-2-(4-Benzyloxyphenyl)-1-(tert-butoxycarbonylamino)-1-ethyl]-3-(3-diethylamino-1-propyl)-5-(3-diethylamino-1-propoxy)benzimidazole], the results for the IC50 (in assay [1]; on sRAGE (ligand S-100b); at sRAGE (ligand Amyloid-β)) were 1 to 5 µM, 1 to 5 µM and 5 to 10 µM, respectively.

Turning to `CCN(CC)CCCOc1ccc2nc([C@@H](Cc3ccc(OCc4ccccc4)cc3)NC(=O)OC(C)(C)C)n(CC)c2c1` [Example 11, 2-[(1R)-2-(4-Benzyloxyphenyl)-1-(tert-butoxycarbonylamino)-1-ethyl]-3-ethyl-5-(3-diethylamino-1-propoxy)benzimidazole], the IC50 (in assay [1]; at sRAGE (ligand S-100b); on sRAGE (ligand Amyloid-β)) was 1 to 5 µM throughout.

Take `CCN(CC)CCCOc1ccc2nc([C@H](N)Cc3ccc(OCc4ccccc4)cc3)n(CCCN(CC)CC)c2c1` [Example 12, 2-[(1R)-2-(4-Benzyloxyphenyl)-1-amino-1-ethyl]-3-(3-diethylamino-1-propyl)-5-(3-diethylamino-1-propoxy)benzimidazole]: the IC50 (in assay [1]; at sRAGE (ligand S-100b); at sRAGE (ligand Amyloid-β)) was 1 to 5 µM each time.

With `CCN(CC)CCCOc1ccc2nc([C@@H](Cc3ccc(OCc4ccccc4)cc3)NC(=O)OC(C)(C)C)n(Cc3ccccc3)c2c1` [Example 13, 2-[(1R)-2-(4-Benzyloxyphenyl)-1-(tert-butoxycarbonylamino)-1-ethyl]-3-benzyl-5-(3-diethylamino-1-propoxy)benzimidazole], the half-maximal inhibitory concentration (IC50) (in assay [1]; on sRAGE (ligand S-100b); at sRAGE (ligand Amyloid-β)) was 5 to 10 µM throughout.

`CCN(CC)CCCOc1ccc2nc([C@H](N)Cc3ccc(OCc4ccccc4)cc3)n(Cc3ccccc3)c2c1` [Example 14, 2-[(1R)-2-(4-Benzyloxyphenyl)-1-amino-1-ethyl]-3-benzyl-5-(3-diethylamino-1-propoxy)benzimidazole]: the IC50 in assay [1] was 5 to 10 µM; at sRAGE (ligand S-100b), 5 to 10 µM; at sRAGE (ligand Amyloid-β), 10 to 20 µM.

In the case of `CCCn1c([C@@H](Cc2ccc(OCc3ccccc3)cc2)NC(=O)OC(C)(C)C)nc2ccc(OCCCN(CC)CC)cc21` [Example 15, 2-[(1R)-2-(4-Benzyloxyphenyl)-1-(tert-butoxycarbonylamino)-1-ethyl]-3-propyl-5-(3-diethylamino-1-propoxy)benzimidazole], the IC50 (in assay [1]; on sRAGE (ligand S-100b); on sRAGE (ligand Amyloid-β)) was 5 to 10 µM throughout.

For `CCCn1c([C@H](N)Cc2ccc(OCc3ccccc3)cc2)nc2ccc(OCCCN(CC)CC)cc21` [Example 16, 2-[(1R)-2-(4-Benzyloxyphenyl)-1-amino-1-ethyl]-3-propyl-5-(3-diethylamino-1-propoxy)benzimidazole], the IC50 is 10 to 20 µM in assay [1], 5 to 10 µM on sRAGE (ligand S-100b) and 10 to 20 µM on sRAGE (ligand Amyloid-β).

The record behind these values is patent US20080119534A1, “Benzimidazole Derivatives as Therapeutic Agents” (Trans Tech Pharma, Inc, priority 2001, published 2008).
